From ChEMBL document CHEMBL1125873 (J Med Chem, 1991)

Legend:
[1] = Half-life value of the compound.; type: ADME
[2] = Loss of first equivalent halide ion using Chloride ion electrode experiments.; type: ADME

Q: Which half-life [1] does the source give for `O=P(O)(NCCCl)NCCCl` [PALIFOSFAMIDE] here?
A: The half-life was 1.15 h.

Q: And the “k x10e3” value [2]?
A: The value was 10 min-1.
